Experimental data published in US11555035B2, “Heterocyclic compound and harmful arthropod-controlling agent containing same” (SUMITOMO CHEMICAL COMPANY, LIMITED, priority 2017, dated 2023).

Test system: German cockroaches (Blattella germanica)
Assay: Test method 9: treated filter paper with sucrose, German cockroaches
Assay type: in vivo
Details: 500 ppm, 0.7 mL on filter paper, male adults, after 6 days
Protocol: Next, Test Examples are used to show effects of the Present compounds on harmful arthropods. In the following Test Examples, the tests were carried out at 25° C.
Each test compound is formulated according to the process described in the Formulation Example 5 to obtain each formulation, and water is added thereto to prepare a diluted solution containing a prescribed concentration of each test compound.
A filter paper having a diameter of 5.5 cm is lined with the inside bottom of a cup having a diameter of 5.5 cm, each of said diluted solutions (0.7 mL) is added dropwise on the filter paper, and sucrose (30 mg) is homogeneously placed into said cup as a feed. Two(2) male adult German cockroaches (Blattella germanica) are released into said cup, and the cup is covered. After 6 days, life and death of the German cockroach are examined, the number of the dead insects is counted, and the mortality of insects is calculated by the following equation. Mortality(%)=(Number of dead insects/Number of test insects)×100

| Compound | mortality |
| --- | --- |
| CCS(=O)(=O)c1cc(-c2ncc(C#N)cn2)cnc1-c1nc2cc(C(F)(F)F)cnc2n1C [compound 2] | 100% |
| CCS(=O)(=O)c1cc(-c2ncc(C#N)cn2)c(N)nc1-c1nc2cc(C(F)(F)F)cnc2n1C [compound 7] | 100% |
